Results as given in ChEMBL document CHEMBL4819112, “Design, synthesis and antitumor activity of phthalazine-1,4-dione-based menaquinone analogs” (Bioorg Med Chem Lett, 2021).
The source made the active and inactive calls. The rule behind the calls is not given here.

Legend:
[1] = tested on: JHH7; assay: (§1) Growth inhibition of human JHH7 cells measured after 24 hrs; assay type: functional, cell-based
[2] = as §1; assay type: functional, cell-based; conditions: JHH7, 24 h
[3] = tested on: Hepatocyte; assay: Growth inhibition of human hepatocytes cells upto 10 uM measured after 24 hrs; assay type: cell-based
[4] = tested on: FLC-4; assay: Growth inhibition of human FLC-4 cells measured after 24 hrs; assay type: functional, cell-based

| Structure (SMILES) | Activity [1] | IC50 [2] | Activity [3] | Activity [4] |
| --- | --- | --- | --- | --- |
| C/C(=C\CC/C(C)=C/Cn1c(=O)c2ccccc2c(=O)n1C)CC/C=C(\C)CC/C=C(\C)C(=O)O | Active |  |  |  |
| CC(C)=CCC/C(C)=C/CC/C(C)=C/CC/C(C)=C/Cn1c(=O)c2ccccc2c(=O)n1C | Active |  |  |  |
| CC(C)=CCC/C(C)=C/Cn1c(=O)c2ccccc2c(=O)n1C |  | 340 nM | Non-Toxic | Active |
| CC(C)=CCn1c(=O)c2ccccc2c(=O)n1C | Active |  | Non-Toxic |  |
| CC(C)=CCC/C(C)=C/CC/C(C)=C/Cn1c(=O)c2ccccc2c(=O)n1C | Active |  |  |  |
